Among the data in patent US20110038897A1, “ORAL CONTROLLED RELEASE FORMULATIONS” (priority 1999, published 2011) are absorption and metabolism values, retold here.

The data set is described as follows: Biopharmaceutical properties of rivastigmine in humans. The format is in vivo.

SMILES strings stand for the structures.

As to `CCN(C)C(=O)Oc1cccc([C@H](C)N(C)C)c1` [Rivastigmine], the absorption result was “rapidly and completely absorbed”. Moreover, the metabolism result (esterases, e.g., acetyl and butyryl cholinesterase) is “metabolised mainly through hydrolysis by esterases”.
